What was measured:
[1] = tested on: U937, OCI-AML2 and MOLM-13; assay: Cell proliferation of parental, CRBN-ablated and GSPT1-G575N expressing AML cells; type: cell-based, human
Description: (§1) FIG. 2A illustrates the volcano plot of differentially abundant proteins in response to Compound D treatment relative to the DMSO control. KG1 cells were treated with DMSO or 100 nM Compound D for 4 hours and subjected to TMT proteomics analysis. The X-axis denotes the log 2-fold change of Compound D versus the DMSO control for each protein. P-values were corrected for multiple hypothesis testing using the Benjamini-Hoschberg method to arrive at an adjusted-P-value (adj-P, also known as a false discovery rate). The y-axis denotes the −log 10 (adj-P) values indicating statistical significance such that proteins lying above the dotted red line are statistically significant findings with adjusted P-values<0.05. FIG. 2B illustrates the immunoblot analysis of KG1 and U937 cells treated with DMSO or Compound D for 4 hours. Where indicated, cells were pretreated with Bortezomib or MLN4924 for 30 minutes. […]
For cell proliferation assays, human cancer cell lines cultured in the growth medium recommended by the vendor (as described above) were seeded into black 384-well plates containing DMSO or test compounds. […] After 72 hours, cell proliferation was assessed using the CTG assay according to the manufacturer's instructions. […]

U937 GCN2-/- cells = assay: Immunoblot and proliferation (CTG, day 3) of U937 GCN2-/- cells re-expressing GCN2; type: cell-based, human; conditions: not with mutants T899A/T904A, K619R, F1143L/R1144L
Description: The U937 GCN2−/− cell line is derived from a single clone of U937 parental cells stably infected with a lentiviral CRISPR vector targeting GCN2. […] Cells were incubated with DMSO or 200 nM Compound D and lysed at the indicated time points. Arrows pointing to bands in the blot on the right designate the cleaved forms of caspase-3. […] The U937 GCN2−/− cell line is derived from a single clone of U937 parental cells stably infected with a lentiviral CRISPR vector targeting GCN2. […] Cells were treated with DMSO or Compound D for 24 hours. On day 3 after Compound D treatment, cell proliferation was assessed by CTG. Result shown in all figure panels is representative of at least three biological replicates. Data in FIGS. 13C, 13D and 13E are shown as mean±SD, n=3 technical replicates.
To determine if the activation of the ISR by Compound D is solely mediated by GCN2, the effect of GCN2 ablation on Compound D response was evaluated.

GSPT1 = biological target: T1, GSPT1 (Homo sapiens, UniProt P15170+Q96SW2); assay: Tandem mass tag (TMT) quantitative mass spectrometry of the global proteome in KG-1; type: cell-based; conditions: 0.1 μM, 4 hours
T1 construct: endogenous in cells; host or cells: KG-1 (TMT proteomics); KG1, U937 / U937-Cas9, MOLM-13, OCI-AML2 (immunoblots)
T1 sequence (P15170 1-637 isoform P15170-3): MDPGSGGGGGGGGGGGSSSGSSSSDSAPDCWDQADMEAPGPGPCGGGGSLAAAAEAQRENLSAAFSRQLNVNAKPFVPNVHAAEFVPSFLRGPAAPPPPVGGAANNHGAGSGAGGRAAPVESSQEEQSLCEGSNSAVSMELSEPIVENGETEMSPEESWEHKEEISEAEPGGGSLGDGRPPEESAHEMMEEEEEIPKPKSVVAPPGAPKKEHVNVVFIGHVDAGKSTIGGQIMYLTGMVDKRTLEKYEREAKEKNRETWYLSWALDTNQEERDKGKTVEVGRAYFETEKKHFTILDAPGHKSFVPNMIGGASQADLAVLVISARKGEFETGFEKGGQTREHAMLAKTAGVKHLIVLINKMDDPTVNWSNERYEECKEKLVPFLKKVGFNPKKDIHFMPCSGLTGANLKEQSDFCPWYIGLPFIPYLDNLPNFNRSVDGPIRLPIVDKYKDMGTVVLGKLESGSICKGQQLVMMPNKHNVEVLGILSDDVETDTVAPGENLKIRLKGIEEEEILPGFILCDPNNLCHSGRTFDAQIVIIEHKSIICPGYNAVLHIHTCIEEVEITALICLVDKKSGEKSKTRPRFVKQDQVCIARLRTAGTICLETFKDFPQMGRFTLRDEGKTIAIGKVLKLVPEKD
T1 sequence (Q96SW2 whole entry): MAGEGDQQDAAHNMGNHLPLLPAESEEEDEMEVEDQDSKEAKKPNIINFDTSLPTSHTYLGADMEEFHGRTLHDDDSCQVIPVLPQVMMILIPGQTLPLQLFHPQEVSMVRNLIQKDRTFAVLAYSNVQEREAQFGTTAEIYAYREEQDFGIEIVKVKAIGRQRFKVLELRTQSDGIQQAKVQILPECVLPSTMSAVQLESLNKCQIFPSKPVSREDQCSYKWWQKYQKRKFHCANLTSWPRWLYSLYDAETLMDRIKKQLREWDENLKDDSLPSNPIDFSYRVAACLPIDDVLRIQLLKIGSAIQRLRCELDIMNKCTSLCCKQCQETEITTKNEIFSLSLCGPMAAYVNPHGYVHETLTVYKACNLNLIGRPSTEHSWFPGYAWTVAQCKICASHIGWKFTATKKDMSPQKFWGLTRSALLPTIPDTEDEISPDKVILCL
T1 sequence (Q16531 whole entry partner): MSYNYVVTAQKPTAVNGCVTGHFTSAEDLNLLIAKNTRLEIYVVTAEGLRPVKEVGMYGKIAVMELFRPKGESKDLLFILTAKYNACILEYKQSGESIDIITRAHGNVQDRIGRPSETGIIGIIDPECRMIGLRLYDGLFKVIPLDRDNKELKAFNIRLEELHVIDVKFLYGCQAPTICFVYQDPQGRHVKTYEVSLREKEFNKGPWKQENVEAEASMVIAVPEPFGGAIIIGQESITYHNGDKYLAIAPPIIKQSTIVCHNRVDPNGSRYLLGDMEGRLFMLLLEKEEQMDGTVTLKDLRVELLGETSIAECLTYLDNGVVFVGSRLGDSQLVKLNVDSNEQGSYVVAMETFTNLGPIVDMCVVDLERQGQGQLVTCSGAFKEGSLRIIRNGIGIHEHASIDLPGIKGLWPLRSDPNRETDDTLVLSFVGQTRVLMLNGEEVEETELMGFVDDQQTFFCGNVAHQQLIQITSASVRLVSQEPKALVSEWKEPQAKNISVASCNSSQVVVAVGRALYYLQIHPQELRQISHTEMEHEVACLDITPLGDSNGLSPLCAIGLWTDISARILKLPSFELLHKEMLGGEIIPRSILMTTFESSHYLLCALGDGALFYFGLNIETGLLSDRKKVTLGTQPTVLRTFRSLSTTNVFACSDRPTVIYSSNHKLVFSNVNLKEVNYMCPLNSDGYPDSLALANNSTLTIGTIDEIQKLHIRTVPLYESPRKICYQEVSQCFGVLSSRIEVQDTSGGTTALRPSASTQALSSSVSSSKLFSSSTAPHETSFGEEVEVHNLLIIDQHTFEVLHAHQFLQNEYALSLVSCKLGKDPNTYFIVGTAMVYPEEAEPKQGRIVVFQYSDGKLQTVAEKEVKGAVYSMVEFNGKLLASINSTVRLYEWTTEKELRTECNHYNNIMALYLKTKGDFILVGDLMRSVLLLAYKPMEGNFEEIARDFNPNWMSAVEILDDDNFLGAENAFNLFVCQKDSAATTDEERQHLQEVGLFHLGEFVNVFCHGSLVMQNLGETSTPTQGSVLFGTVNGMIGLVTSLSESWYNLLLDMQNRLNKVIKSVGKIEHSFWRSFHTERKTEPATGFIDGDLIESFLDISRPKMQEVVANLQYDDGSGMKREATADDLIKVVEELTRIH
Description: as §1
Like all other cereblon modulators, Compound D contains a glutarimide ring (FIG. 1A) that can bind cereblon and redirect it to target neosubstrates for degradation. Thus, the effect of Compound D on the global proteome in AML cell line KG-1 was assessed using tandem mass tag (TMT) quantitative mass spectrometry.

O=C1CCC(N2Cc3cc(CNC(=O)C(F)(F)c4ccc(Cl)cc4)ccc3C2=O)C(=O)N1 (centres unmarked) [Compound D, 2-(4-chlorophenyl)-N-((2-(2,6-dioxopiperidin-3-yl)-1-oxoisoindolin-5-yl)methyl)-2,2-difluoroacetamide]
anti-proliferative effect after ablation of CRBN ([1]; CRBN knockout U937, OCI-AML2, MOLM-13): completely abolished the anti-proliferative effect
antiproliferative response in cells overexpressing GSPT1-G575N ([1]; U937, OCI-AML2, MOLM-13, GSPT1 stabilization): completely inhibited the response to Compound D
response after reintroduction of GCN2 wild-type (U937 GCN2-/- cells): significantly restored the response to Compound D
GSPT1 protein abundance (GSPT1): significant reduction of GSPT1 protein abundance
effect on the rest of the proteome (GSPT1): minimal effect on the rest of the proteome
